# Laboratory results from patent US20160223562A1, “Method for Determining the Concentration of a Peptide” (JPT Peptide Technologies GmbH, priority 2010, published 2016).
# Square brackets hold non-standard residues; d marks the D form. Peptide text beside a SMILES is read from it. Tyr(3-NO2) = N[C@@H](Cc1ccc(O)c([N+](=O)[O-])c1)C(=O)O
# Experiments:
# Trypsin [1] = biological target: T1, Trypsin (Sus scrofa, UniProt P00761); experiment: Trypsin cleavage of N-terminal quantification tag Ac-nitroTyr-SGK- from peptides, LC-MS with UV detection at 350 nm; type: biochemical; settings: for Kusebauch 24 h, RT: Percent Cleavage of Tag [by UV350 - Peptide-Tag vs. Tag]: trypsin protocol of example 9, 24 h; for cleavage efficiency in words: trypsin
# T1 construct: purchased Promega Corporation V511
# T1 sequence (P00761 9-231): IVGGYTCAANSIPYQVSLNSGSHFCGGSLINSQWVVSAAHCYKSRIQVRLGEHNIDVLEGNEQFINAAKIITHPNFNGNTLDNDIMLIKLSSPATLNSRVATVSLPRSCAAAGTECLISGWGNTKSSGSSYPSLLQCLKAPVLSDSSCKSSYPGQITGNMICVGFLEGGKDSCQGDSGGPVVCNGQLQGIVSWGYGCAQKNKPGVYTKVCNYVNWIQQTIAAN
# Trypsin [2] = biological target: T1, Trypsin; experiment: Trypsin cleavage of C-terminal quantification tag -SA-nitroTyr-G from peptides, LC-MS with UV detection at 350 nm; type: biochemical; settings: after reduction and alkylation, trypsin enzyme/substrate 1:50 over night at RT
# Method: 23 peptides carrying the C-terminal quantification-tag-SA-nitroTyr-G-OH (SEQ ID NO:2) were synthesized by Fmoc-based solid phase peptide synthesis and purified by HPLC. Each peptide was subjected to the following trypsin cleavage protocol:
# Trypsin Activation: Trypsin (20 μg, sequencing grade modified trypsin, Promega Corporation, Madison, Wis., USA, catalogue no. V511, specific activity 16.965 u/mg) was dissolved in Trypsin resuspension buffer (200 μL, Promega, catalogue no. V542A, ingredient 50 mM acetic acid) and incubated for 15 min at 37° C.
# Reduction and alkylation: The peptide (approx. 0.05 mg) was dissolved in 1 M urea and 100 mM fresh ammonium hydrogen carbonate (300 μL). TCEP (Tris(2-carboxyethyl) phosphine hydrochloride, 0.2 M, 7.5 μL, final concentration 5 mM) was added and the solution incubated at 37° C. for 1 h. After addition of iodoacetamide (0.5 M, 6.0 μL, final concentration 10 mM) the solution was incubated at RT in the dark for another 30 min. Digestion: The sample was digested with activated Trypsin solution (10 μL per well, 1.0 μg, resulting enzyme/substrate ratio 1:50) over night at RT. To stop the digestion, HCl (2 M, 8 μL final concentration 50 mM) and TFA (3.2 μL, final concentration 1%, pH<2) were added. Finally, the sample was analyzed by LC-MS at 350 nm.
Structure (SMILES),"Kusebauch 24 h, RT: Percent Cleavage of Tag [by UV350 - Peptide-Tag vs. Tag] (Trypsin [1])",Percent Cleavage of Tag [by UV at 350 nm] (Trypsin [2]),cleavage efficiency in words (Trypsin [1])
"CC[C@H](C)[C@H](NC(=O)[C@H](Cc1ccccc1)NC(=O)[C@H](Cc1ccc(O)cc1)NC(=O)[C@H](Cc1c[nH]cn1)NC(=O)[C@@H](NC(=O)CNC(=O)[C@H](CCCCN)NC(=O)CNC(=O)[C@H](CO)NC(=O)[C@H](Cc1ccc(O)c([N+](=O)[O-])c1)NC(C)=O)[C@@H](C)O)C(=O)N[C@@H](CC(=O)O)C(=O)N[C@@H](CC(C)C)C(=O)N[C@@H](CC(N)=O)C(=O)N[C@@H](CCCCN)C(=O)O [Peptide 6, Ac-nitroTyr-SGKGTHYFIDLN-K-OH] (Ac-[Tyr(3-NO2)]SGKGTHYFIDLNK-OH)",100.0%,100%,
"CC[C@H](C)[C@H](NC(=O)[C@H](Cc1ccccc1)NC(=O)[C@H](Cc1ccc(O)cc1)NC(=O)[C@H](Cc1c[nH]cn1)NC(=O)[C@@H](NC(=O)[C@@H](NC(=O)[C@H](CCCCN)NC(=O)CNC(=O)[C@H](CO)NC(=O)[C@H](Cc1ccc(O)c([N+](=O)[O-])c1)NC(C)=O)C(C)C)[C@@H](C)O)C(=O)N[C@@H](CC(=O)O)C(=O)N[C@@H](CC(C)C)C(=O)N[C@@H](CC(N)=O)C(=O)N[C@@H](CCCCN)C(=O)O [Peptide 18, Ac-nitroTyr-SGKVTHYFIDLN-K-OH] (Ac-[Tyr(3-NO2)]SGKVTHYFIDLNK-OH)",100.0%,100%,
"CC[C@H](C)[C@H](NC(=O)[C@H](Cc1ccccc1)NC(=O)[C@H](Cc1ccc(O)cc1)NC(=O)[C@H](Cc1c[nH]cn1)NC(=O)[C@@H](NC(=O)[C@H](Cc1ccccc1)NC(=O)[C@H](CCCCN)NC(=O)CNC(=O)[C@H](CO)NC(=O)[C@H](Cc1ccc(O)c([N+](=O)[O-])c1)NC(C)=O)[C@@H](C)O)C(=O)N[C@@H](CC(=O)O)C(=O)N[C@@H](CC(C)C)C(=O)N[C@@H](CC(N)=O)C(=O)N[C@@H](CCCCN)C(=O)O [Peptide 5, Ac-nitroTyr-SGKFTHYFIDLN-K-OH] (Ac-[Tyr(3-NO2)]SGKFTHYFIDLNK-OH)",99.0%,100%,
"CC[C@H](C)[C@H](NC(=O)[C@H](Cc1ccccc1)NC(=O)[C@H](Cc1ccc(O)cc1)NC(=O)[C@H](Cc1c[nH]cn1)NC(=O)[C@@H](NC(=O)[C@H](CCCCN)NC(=O)[C@H](CCCCN)NC(=O)CNC(=O)[C@H](CO)NC(=O)[C@H](Cc1ccc(O)c([N+](=O)[O-])c1)NC(C)=O)[C@@H](C)O)C(=O)N[C@@H](CC(=O)O)C(=O)N[C@@H](CC(C)C)C(=O)N[C@@H](CC(N)=O)C(=O)N[C@@H](CCCCN)C(=O)O [Peptide 9, Ac-nitroTyr-SGKKTHYFIDLN-K-OH] (Ac-[Tyr(3-NO2)]SGKKTHYFIDLNK-OH)",100.0%,99.2%,good cleavage efficiencies
"CC[C@H](C)[C@H](NC(=O)[C@H](Cc1ccccc1)NC(=O)[C@H](Cc1ccc(O)cc1)NC(=O)[C@H](Cc1c[nH]cn1)NC(=O)[C@@H](NC(=O)[C@@H]1CCCN1C(=O)[C@H](CCCCN)NC(=O)CNC(=O)[C@H](CO)NC(=O)[C@H](Cc1ccc(O)c([N+](=O)[O-])c1)NC(C)=O)[C@@H](C)O)C(=O)N[C@@H](CC(=O)O)C(=O)N[C@@H](CC(C)C)C(=O)N[C@@H](CC(N)=O)C(=O)N[C@@H](CCCCN)C(=O)O [Peptide 13, Ac-nitroTyr-SGKPTHYFIDLN-K-OH] (Ac-[Tyr(3-NO2)]SGKPTHYFIDLNK-OH)",37.0%,99.4%,not efficiently cleaved
